From PMC7758422, “Design, Synthesis, and Antitumor Activities Study of Stapled A4K14-Citropin 1.1 Peptides” (Frontiers in Chemistry, 2020)
Where two headings read alike, the source gives them in different places. Bridge positions count the residues as written; N and C are the ends. Square brackets hold non-standard residues; d marks the D form. Peptide text beside a SMILES is read from it. R8 = C=CCCCCCC[C@@](C)(N)C(=O)O; S5 = C=CCCC[C@](C)(N)C(=O)O

Experiments:
[1] = on-resin all-hydrocarbon stapling by ring-closing metathesis of S5/S5 (i,i+4) or R8/S5 (i,i+7), Grubbs first-generation catalyst (0.45 mmol per 0.15 mmol resin, 3 equiv), then TFA/TIPS/phenol/H2O cleavage and RP-HPLC; details: the molecule shown is the open-chain precursor, 25.0 °C, 4.0 h, 36 steps
[2] = system: α-chymotrypsin; assay: Protease stability experiment (α-chymotrypsin-mediated degradation); type: in vitro ADME; details: for half-life at 25 µM: α-chymotrypsin 0.5 ng/μl in PBS pH 7.4 with 2 mM CaCl2, 50 μl peptide 1 mM in DMSO + 1,950 μl enzyme, 37°C, 0, 1, 2, 4, 8, 12 h, residual peptide by HPLC, read-out: t1/2 (h), hydrolysis enzyme degradation half-life (converted); for remaining at 12 h, 25 µM: read-out: peptide remaining intact after 12 h of protease exposure
Experimental: Protease Stability Experiment
Fifty microliters peptides in dimethyl sulfoxide (DMSO) (1 mM) and 1,950 μl α-chymotrypsin in phosphate-buffered saline (PBS) (0.5 ng/μl, pH 7.4, containing 2 mM CaCl2) were mixed and incubated at 37°C. After 0, 1, 2, 4, 8, and 12 h, the percent residual peptide was monitored by HPLC.

[3] = system: human prostate cancer cell line C4-2B; type: cell-based
Description: (§1) Cell Culture and Cell Viability Assay
(§2) The human prostate cancer cell line C4-2B was kindly provided and authenticated by Dr. Leland Chung (Cedars-Sinai Medical Center, Los Angeles, CA, USA). The human lung tumor cell line A549, the human breast tumor cell line MCF-7, and glioma cell line U87 were obtained from Shanghai Cellular Institute of Chinese Academy of Sciences (Shanghai, China). All cell lines were maintained in Dulbecco's modified Eagle's medium (DMEM) involving 10% fetal bovine serum (FBS) and 1% penicillin–streptomycin (PS) (complete DMEM) and was cultured at 37°C with humidified atmosphere of 5% CO2. Cell viability was examined using the cell counting kit (CCK-8) in accordance with manufacturer's protocol. Cells were seeded in 96-well culture plates at a density of 3 ×10^3 cells/well at 37°C for 24 h. Next day, cells were treated without or with various concentrations (0.39, 0.78, 1.56, 3.125, 6.25, 12.5, 25, and 50 μM) of peptides for 96 h after which 10 μl of CCK-8 reagent was added to each well and incubated for further 2 h at 37°C. The optical density (OD) was then measured at a wavelength of 450 nm on a Cell Imaging Multi-Mode Reader (BioTek, Vermont, USA), and the average OD values for each sample were analyzed using Image-J software (NIH, Bethesda, MD, USA). The half maximal inhibitory concentration (IC50) was calculated by GraphPad Prism v7.0 software (San Diego, CA, USA).

[4] = system: human breast tumor cell line MCF-7; type: cell-based
Description: as §1, §2

[5] = system: human lung tumor cell line A549; type: cell-based
Description: as §1, §2

[6] = system: glioma cell line U87; type: cell-based
Description: as §1, §2

[7] = 21-membered ring, 1,2-dichloroethane
[8] = CCK-8, 96 h treatment, 0.39-50 μM, OD 450 nm, read-out: IC50 (μM) C4-2B
[9] = CCK-8, 96 h treatment, 0.39-50 μM, OD 450 nm, read-out: IC50 (μM) MCF-7
[10] = CCK-8, 96 h treatment, 0.39-50 μM, OD 450 nm, read-out: IC50 (μM) A549
[11] = CCK-8, 96 h treatment, 0.39-50 μM, OD 450 nm, read-out: IC50 (μM) U87
[12] = α-chymotrypsin 0.5 ng/μl in PBS pH 7.4 with 2 mM CaCl2, 37°C, 12 h, HPLC

Compound | half-life at 25 µM [2] [h] | IC50 [3, 8] [µM] | IC50 [4, 9] [µM] | IC50 [5, 10] [µM] | IC50 [6, 11] [µM] | also measured
C=CCCC[C@](C)(NC(=O)[C@H](C)NC(=O)[C@@H](NC(=O)[C@H](CCCCNC(=O)OC(C)(C)C)NC(=O)[C@H](CCCCNC(=O)OC(C)(C)C)NC(=O)[C@@H](NC(=O)[C@@H](NC(=O)[C@H](C)NC(=O)[C@H](Cc1ccccc1)NC(=O)[C@H](CC(C)C)NC(=O)CNC(C)=O)C(C)C)[C@@H](C)CC)C(C)C)C(=O)N[C@H](C(=O)N[C@H](C(=O)N[C@@H](CCCCNC(=O)OC(C)(C)C)C(=O)N[C@@](C)(CCCC=C)C(=O)N[C@@H](CC(C)C)C(N)=O)[C@@H](C)CC)C(C)C | – | – | – | – | – | ring closure, overall yield [1, 7]: 62 % yield
CC[C@H](C)[C@H](NC(=O)[C@@H](NC(=O)[C@H](C)NC(=O)[C@H](Cc1ccccc1)NC(=O)[C@H](CC(C)C)NC(=O)CNC(C)=O)C(C)C)C(=O)N[C@@H](CCCCN)C(=O)N[C@@H](CCCCN)C(=O)N[C@H](C(=O)N[C@@H](C)C(=O)N[C@@]1(C)CCCC=CCCC[C@@](C)(C(=O)N[C@@H](CC(C)C)C(N)=O)NC(=O)[C@H](CCCCN)NC(=O)[C@H]([C@@H](C)CC)NC(=O)[C@H](C(C)C)NC1=O)C(C)C [A4K14-citropin1.1-5] (Ac-GLFAVIKKVA[S5]VIK[S5]L-NH2; staple 11-15) | 1.83 | 11.9 | 12.4 | 9.9 | 8.23 | –
C=CCCC[C@](C)(NC(=O)[C@@H](NC(=O)[C@H](C)NC(=O)[C@H](Cc1ccccc1)NC(=O)[C@H](CC(C)C)NC(=O)CNC(C)=O)C(C)C)C(=O)N[C@@H](CCCCNC(=O)OC(C)(C)C)C(=O)N[C@@H](CCCCNC(=O)OC(C)(C)C)C(=O)N[C@H](C(=O)N[C@@](C)(CCCC=C)C(=O)N[C@@H](COC(C)(C)C)C(=O)N[C@H](C(=O)N[C@H](C(=O)N[C@@H](CCCCNC(=O)OC(C)(C)C)C(=O)NCC(=O)N[C@@H](CC(C)C)C(N)=O)[C@@H](C)CC)C(C)C)C(C)C | – | – | – | – | – | ring closure, overall yield [1, 7]: 71 % yield
CC[C@H](C)[C@H](NC(=O)[C@@H](NC(=O)[C@H](CO)NC(=O)[C@]1(C)CCCC=CCCC[C@](C)(NC(=O)[C@@H](NC(=O)[C@H](C)NC(=O)[C@H](Cc2ccccc2)NC(=O)[C@H](CC(C)C)NC(=O)CNC(C)=O)C(C)C)C(=O)N[C@@H](CCCCN)C(=O)N[C@@H](CCCCN)C(=O)N[C@@H](C(C)C)C(=O)N1)C(C)C)C(=O)N[C@@H](CCCCN)C(=O)NCC(=O)N[C@@H](CC(C)C)C(N)=O [A4K14-citropin1.1-3] (Ac-GLFAV[S5]KKV[S5]SVIKGL-NH2; staple 6-10) | 0.61 | 17.9 | 11.9 | 12.1 | 11.9 | –
CC(=O)NCC(=O)N[C@@H](CC(C)C)C(=O)N[C@@H](Cc1ccccc1)C(=O)N[C@@H](C)C(=O)N[C@H](C(=O)N[C@]1(C)CCCCCCC=CCCC[C@@](C)(C(=O)N[C@@H](CCCCN)C(=O)NCC(=O)N[C@@H](CC(C)C)C(N)=O)NC(=O)[C@H](C(C)C)NC(=O)[C@H](CO)NC(=O)[C@H](C)NC(=O)[C@H](C(C)C)NC(=O)[C@H](CCCCN)NC(=O)[C@H](CCCCN)NC1=O)C(C)C [A4K14-citropin1.1-7] (Ac-GLFAV[R8]KKVASV[S5]KGL-NH2; staple 6-13) | 0.58 | 10.2 | 12.1 | 16.4 | 14.7 | –
Ac-GLFAVIKKVASVIKGL-NH2 [A4K14-citropin1.1, reference compound] | 0.63 | 29.1 | 14.2 | 15 | 14.8 | peptide remaining intact after 12 h of protease exposure [2, 12]: degraded completely
CC[C@H](C)[C@H](NC(=O)[C@@H](NC(=O)[C@H](CO)NC(=O)[C@H](C)NC(=O)[C@]1(C)CCCC=CCCC[C@](C)(NC(=O)[C@H](C)NC(=O)[C@H](Cc2ccccc2)NC(=O)[C@H](CC(C)C)NC(=O)CNC(C)=O)C(=O)N[C@@H]([C@@H](C)CC)C(=O)N[C@@H](CCCCN)C(=O)N[C@@H](CCCCN)C(=O)N1)C(C)C)C(=O)N[C@@H](CCCCN)C(=O)NCC(=O)N[C@@H](CC(C)C)C(N)=O [A4K14-citropin1.1-2] (Ac-GLFA[S5]IKK[S5]ASVIKGL-NH2; staple 5-9) | 1.72 | – | – | – | – | IC50 ([3]; 96 h): 10.1 µM; IC50 ([4]; 96 h): 12.7 µM; IC50 ([5]; 96 h): 12.6 µM; IC50 ([6]; 96 h): 14.8 µM
CC[C@H](C)[C@H](NC(=O)[C@@H](NC(=O)[C@H](CO)NC(=O)[C@H](C)NC(=O)[C@@H](NC(=O)[C@H](CCCCN)NC(=O)[C@H](CCCCN)NC(=O)[C@]1(C)CCCC=CCCC[C@](C)(NC(=O)CNC(C)=O)C(=O)N[C@@H](Cc2ccccc2)C(=O)N[C@@H](C)C(=O)N[C@@H](C(C)C)C(=O)N1)C(C)C)C(C)C)C(=O)N[C@@H](CCCCN)C(=O)NCC(=O)N[C@@H](CC(C)C)C(N)=O [A4K14-citropin1.1-1] (Ac-G[S5]FAV[S5]KKVASVIKGL-NH2; staple 2-6) | > 10 | 8.94 | 11.3 | 12.5 | 11.9 | remaining at 12 h, 25 µM [2, 12]: > 85%
CC[C@H](C)[C@H](NC(=O)[C@@H](NC(=O)[C@H](C)NC(=O)[C@H](Cc1ccccc1)NC(=O)[C@H](CC(C)C)NC(=O)CNC(C)=O)C(C)C)C(=O)N[C@@H](CCCCN)C(=O)N[C@@H](CCCCN)C(=O)N[C@@]1(C)CCCC=CCCC[C@@](C)(C(=O)N[C@@H](CCCCN)C(=O)NCC(=O)N[C@@H](CC(C)C)C(N)=O)NC(=O)[C@H](C(C)C)NC(=O)[C@H](CO)NC(=O)[C@H](C)NC1=O [A4K14-citropin1.1-4] (Ac-GLFAVIKK[S5]ASV[S5]KGL-NH2; staple 9-13) | > 10 | 8.9 | 10.5 | 10.5 | 7.28 | remaining at 12 h, 25 µM [2, 12]: > 85%
C=CCCCCCC[C@@](C)(NC(=O)[C@@H](NC(=O)[C@H](C)NC(=O)[C@H](Cc1ccccc1)NC(=O)[C@H](CC(C)C)NC(=O)CNC(C)=O)C(C)C)C(=O)N[C@@H](CCCCNC(=O)OC(C)(C)C)C(=O)N[C@@H](CCCCNC(=O)OC(C)(C)C)C(=O)N[C@H](C(=O)N[C@@H](C)C(=O)N[C@@H](COC(C)(C)C)C(=O)N[C@H](C(=O)N[C@@](C)(CCCC=C)C(=O)N[C@@H](CCCCNC(=O)OC(C)(C)C)C(=O)NCC(=O)N[C@@H](CC(C)C)C(N)=O)C(C)C)C(C)C | – | – | – | – | – | ring closure, overall yield ([1]; 33-membered ring, 1,2-dichloroethane): 62 % yield
C=CCCC[C@](C)(NC(=O)[C@H](C)NC(=O)[C@H](Cc1ccccc1)NC(=O)[C@H](CC(C)C)NC(=O)CNC(C)=O)C(=O)N[C@H](C(=O)N[C@@H](CCCCNC(=O)OC(C)(C)C)C(=O)N[C@@H](CCCCNC(=O)OC(C)(C)C)C(=O)N[C@@](C)(CCCC=C)C(=O)N[C@@H](C)C(=O)N[C@@H](COC(C)(C)C)C(=O)N[C@H](C(=O)N[C@H](C(=O)N[C@@H](CCCCNC(=O)OC(C)(C)C)C(=O)NCC(=O)N[C@@H](CC(C)C)C(N)=O)[C@@H](C)CC)C(C)C)[C@@H](C)CC | – | – | – | – | – | ring closure, overall yield [1, 7]: 62 % yield
CC[C@H](C)[C@@H]1NC(=O)[C@H](C(C)C)NC(=O)[C@H](C)NC(=O)[C@H](Cc2ccccc2)NC(=O)[C@](C)(NC(=O)CNC(C)=O)CCCCCCC=CCCC[C@@](C)(C(=O)N[C@@H](C)C(=O)N[C@@H](CO)C(=O)N[C@H](C(=O)N[C@H](C(=O)N[C@@H](CCCCN)C(=O)NCC(=O)N[C@@H](CC(C)C)C(N)=O)[C@@H](C)CC)C(C)C)NC(=O)[C@H](CCCCN)NC(=O)[C@H](CCCCN)NC1=O [A4K14-citropin1.1-6] (Ac-G[R8]FAVIKK[S5]ASVIKGL-NH2; staple 2-9) | 0.57 | 35.8 | 23.8 | 30.2 | 34.5 | –
